Test results from US10604555B2, “GIP derivatives and uses thereof” (priority 2018, dated 2020).
*1 amine or outer side, *2 acyl side, *3 side chain or, on linkers, in order; H or OH if unused. Where a SMILES comes first, the peptide text is derived from it. Side-chain parts run from the residue outwards. [ ]: non-standard residue; d: D form. The star is where a group is joined. C18 diacid = O=C(O)CCCCCCCCCCCCCCCCC(=O)*; γGlu = O=C(O)[C@H](CCC(=O)[*:2])N[*:1]; Nle = CCCC[C@H](N)C(=O)O; AEEA = NCCOCCOCC(=O)O; Aib = CC(C)(N)C(=O)O

Target: T1, human GIP receptor (Homo sapiens, UniProt P48546)
T1 construct: expressed in transfected cells; host or cells: BHK (parent line BHKTS13), BHK CRE luc2P hGIPR clone #5
T1 sequence (P48546 22-466): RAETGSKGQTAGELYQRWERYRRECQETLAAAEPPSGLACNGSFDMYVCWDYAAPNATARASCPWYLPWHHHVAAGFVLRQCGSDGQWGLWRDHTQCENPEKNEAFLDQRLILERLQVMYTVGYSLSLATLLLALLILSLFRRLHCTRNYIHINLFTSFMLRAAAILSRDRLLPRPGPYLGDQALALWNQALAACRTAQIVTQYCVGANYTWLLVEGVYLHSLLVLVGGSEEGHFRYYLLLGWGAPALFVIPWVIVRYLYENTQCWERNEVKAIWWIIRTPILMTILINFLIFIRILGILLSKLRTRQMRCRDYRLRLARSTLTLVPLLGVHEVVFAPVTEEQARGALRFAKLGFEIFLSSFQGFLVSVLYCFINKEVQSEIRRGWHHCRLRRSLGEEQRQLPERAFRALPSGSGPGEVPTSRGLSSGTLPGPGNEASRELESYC
Experiment: In vitro potency (CRE luciferase; whole cells), BHK CRE luc2P hGIPR
Assay type: cell-based
Conditions: 0.2% HSA
Experimental: In Vitro Potency (CRE Luciferase; Whole Cells)
The in vitro potency is the measure of human GIP, GLP-1 or glucagon receptor activation, respectively, in a whole cell assay.
In vitro potency was determined by measuring the response of the human GIP, GLP-1 or glucagon receptor in a reporter gene assay in individual cell lines. […] When the respective receptor is activated it results in the production of cAMP, which in turn results in the luciferase protein being expressed. When assay incubation is completed the luciferase substrate (luciferin) is added and the enzyme converts luciferin to oxyluciferin to produce bioluminescence. The luminescence is measured as the readout for the assay.
The cells were derived from a clone containing the CRE luciferase element and were established by further transfection with the respective receptor to obtain the current clone.
The cells were cultured at 5% CO2 in Cell Culture Medium. They were aliquoted and stored in liquid nitrogen. The cells were kept in passage and were seeded out the day before each assay.
The Assay Buffer consisted of 1% ovalbumin and 0.1% Pluronic F-68 in Assay Medium with the addition of human serum albumin at twice the indicated concentrations.
1) Cells were plated at 5000 cells/well and incubated overnight.
2) Cells were washed three times in PBS.
3) Assay Medium (50 μl aliquot) with or without serum albumin was added to each well in the assay plate.
4) Stocks of the test compounds and reference compounds were diluted to a concentration of 0.2 μM in Assay Buffer. […] 8) The cells were washed three times with PBS plus some liquid in each well. 9) A 100 μl aliquot of steadylite plus reagent was added to each well of the assay plate (reagent was light sensitive). 10) Each assay plate was covered with aluminum foil to protect it from light and shaken for 30 min at room temperature. 11) Each assay plate was read in a microtiter plate reader. Calculations and Results
The data from the microtiter plate reader was transferred to GraphPad Prism software. The software performs a non-linear regression (log(agonist) vs response).
A minimum of two replicates was measured for each sample. The reported values are averages of the replicates.

Compound	EC50 [nM]
CCCC[C@H](NC(=O)[C@H](C)NC(=O)[C@@H](NC(=O)[C@H](CO)NC(=O)[C@H](Cc1ccc(O)cc1)NC(=O)[C@H](CC(=O)O)NC(=O)[C@H](CO)NC(=O)[C@@H](NC(=O)[C@H](Cc1ccccc1)NC(=O)[C@@H](NC(=O)CNC(=O)[C@H](CCC(=O)O)NC(=O)C(C)(C)NC(=O)[C@@H](N)Cc1ccc(O)cc1)[C@@H](C)O)[C@@H](C)CC)[C@@H](C)CC)C(=O)N[C@@H](CC(=O)O)C(=O)N[C@@H](CCCCN)C(=O)N[C@H](C(=O)N[C@@H](CCCNC(=N)N)C(=O)N[C@@H](CCC(N)=O)C(=O)N[C@@H](CCC(=O)O)C(=O)N[C@@H](CC(=O)O)C(=O)N[C@@H](Cc1ccccc1)C(=O)N[C@H](C(=O)N[C@@H](CCCCNC(=O)CC[C@H](NC(=O)CC[C@H](NC(=O)CC[C@H](NC(=O)CCCCCCCCCCCCCCCCC(=O)O)C(=O)O)C(=O)O)C(=O)O)C(=O)N[C@@H](Cc1c[nH]c2ccccc12)C(=O)N[C@@H](CC(C)C)C(=O)N[C@@H](CC(C)C)C(=O)N[C@@H](C)C(=O)N[C@@H](CCC(N)=O)C(=O)N[C@@H](CCCCN)C(=O)NCC(=O)O)C(C)C)[C@@H](C)CC [Compound 9, N{Epsilon-24}-[(4S)-4-carboxy-4-[[(4S)-4-carboxy-4-[[(4S)-4-carboxy-4-(17-carboxyheptadecanoylamino)butanoyl]amino]butanoyl]amino]butanoyl]-[Aib2,Nle14,Arg18,Glu20,Lys24]-hGIP(1-31)] (H-Y[Aib]EGTFISDYSIA[Nle]DKIRQEDFVK([γGlu-γGlu-γGlu-C18 diacid])WLLAQKG-OH; N-terminus and C-terminus assumed)	0.0629
CCCC[C@H](NC(=O)[C@H](C)NC(=O)[C@@H](NC(=O)[C@H](CO)NC(=O)[C@H](Cc1ccc(O)cc1)NC(=O)[C@H](CC(=O)O)NC(=O)[C@H](CO)NC(=O)[C@@H](NC(=O)[C@H](Cc1ccccc1)NC(=O)[C@@H](NC(=O)CNC(=O)[C@H](CCC(=O)O)NC(=O)[C@H](C)NC(=O)[C@@H](Cc1ccc(O)cc1)NC(C)=O)[C@@H](C)O)[C@@H](C)CC)[C@@H](C)CC)C(=O)N[C@@H](CC(=O)O)C(=O)N[C@@H](CCCCN)C(=O)N[C@H](C(=O)N[C@@H](CCCNC(=N)N)C(=O)N[C@@H](CCC(N)=O)C(=O)N[C@@H](CCC(=O)O)C(=O)N[C@@H](CC(=O)O)C(=O)N[C@@H](Cc1ccccc1)C(=O)N[C@H](C(=O)N[C@@H](CCCCNC(=O)COCCOCCNC(=O)COCCOCCNC(=O)CC[C@H](NC(=O)CCCCCCCCCCCCCCCCC(=O)O)C(=O)O)C(=O)N[C@@H](Cc1c[nH]c2ccccc12)C(=O)N[C@@H](CC(C)C)C(=O)N[C@@H](CC(C)C)C(=O)N[C@@H](C)C(=O)N[C@@H](CCC(N)=O)C(=O)N[C@@H](CCCCN)C(=O)NCC(=O)O)C(C)C)[C@@H](C)CC [Compound 16, N{1}-acetyl,N{Epsilon-24}-[2-[2-[2-[[2-[2-[2-[[(4S)-4-carboxy-4-(17-carboxy-heptadecanoylamino)butanoyl]amino]ethoxy]ethoxy]acetyl]amino]ethoxy]ethoxy]acetyl]-[D-Tyr1,Nle14,Arg18,Glu20,Lys24]-hGIP(1-31)]	0.025
CC[C@H](C)[C@H](NC(=O)[C@H](CO)NC(=O)[C@H](Cc1ccc(O)cc1)NC(=O)[C@H](CC(=O)O)NC(=O)[C@H](CO)NC(=O)[C@@H](NC(=O)[C@H](Cc1ccccc1)NC(=O)[C@@H](NC(=O)CNC(=O)[C@H](CCC(=O)O)NC(=O)[C@H](C)NC(=O)[C@@H](Cc1ccc(O)cc1)NC(C)=O)[C@@H](C)O)[C@@H](C)CC)C(=O)N[C@@H](C)C(=O)N[C@@H](CC(=O)O)C(=O)N[C@@H](CC(=O)O)C(=O)N[C@@H](CCCCN)C(=O)N[C@H](C(=O)N[C@@H](CCCNC(=N)N)C(=O)N[C@@H](CCC(N)=O)C(=O)N[C@@H](CCC(=O)O)C(=O)N[C@@H](CC(=O)O)C(=O)N[C@@H](Cc1ccccc1)C(=O)N[C@H](C(=O)N[C@@H](CCCCNC(=O)COCCOCCNC(=O)COCCOCCNC(=O)CC[C@H](NC(=O)CCCCCCCCCCCCCCCCC(=O)O)C(=O)O)C(=O)N[C@@H](Cc1c[nH]c2ccccc12)C(=O)N[C@@H](CC(C)C)C(=O)N[C@@H](CC(C)C)C(=O)N[C@@H](C)C(=O)N[C@@H](CCC(N)=O)C(=O)N[C@@H](CCCCN)C(=O)NCC(=O)O)C(C)C)[C@@H](C)CC [Compound 19, N{1}-acetyl,N{Epsilon-24}-[2-[2-[2-[[2-[2-[2-[[(4S)-4-carboxy-4-(17-carboxyheptadecanoylamino)butanoyl]amino]ethoxy]ethoxy]acetyl]amino]ethoxy]ethoxy]acetyl]-[D-Tyr1,Asp14,Arg18,Glu20, Lys24]-hGIP(1-31)] (Ac-[dY]AEGTFISDYSIADDKIRQEDFVK([AEEA-AEEA-γGlu-C18 diacid])WLLAQKG-OH; C-terminus assumed)	0.0915
